Among the data in patent US20240415819A1, “MACROCYCLIC COMPOUNDS AS PROTEASOME SUBUNIT BETA TYPE-5 INHIBITORS” (Lead Discovery Center GmbH, priority 2021, published 2024) are IC50 values, retold here.

Assay [1] deals with T1, β5 subunit of the human constitutive proteasome (CPS) (Homo sapiens, UniProt P28074).
T1 construct: purchased Boston Biochem E-360
Nature of the assay: β5 inhibition assay, human constitutive proteasome (Suc-LLVY-AMC). The conditions noted are these: IC50 class, Suc-LLVY-AMC substrate. It is filed as biochemical. As to the method: The enzymatic activity of the β5 subunit of the human constitutive proteasome (CPS) is analyzed. In another assay, which differs from the assay of the human constitutive proteasome only in using the human immunoproteasome (IPS) the enzymatic activity of the β5 subunit of the human immunoproteasome (IPS) is analyzed. […] Inhibition is indicated as IC50 [nM] (“-”=not measured).

For assay [2], the target named is T2, β5 subunit of the human immunoproteasome (IPS) (Homo sapiens, UniProt P28062).
T2 construct: purchased Boston Biochem E-370
Nature of the assay: β5 inhibition assay, human immunoproteasome (Suc-LLVY-AMC). It is filed as biochemical. As to conditions: IC50 class, Suc-LLVY-AMC substrate. An outline of the steps: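 β5 activity is read as liberated AMC fluorescence (355/460 nm) after 4 h dark reaction at RT with 22.6 μM Suc-LLVY-AMC, stopped by 1 μM bortezomib. Beforehand, 1 nM human IPS and compound sat 10 min at RT in HEPES pH 7.5 buffer containing NaCl, 0.02% SDS and DTT.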

Assay [3] deals with A549 (human lung carcinoma cell line). Kind of assay: Glo assay of A549 cells (Table 3; ProteasomeGlo plating scheme). The class given is cell-based. The conditions noted are these: Homo sapiens; A549 cells; read-out: PGLo A549. In a few lines:
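After acoustic compound transfer, plates incubate 105 min (37° C., 5% CO2). Proteasome-Glo reagent containing Suc-LLVY-Glo substrate is added, plates are shaken, then luminescence is measured after 10-15 min to derive IC50 [nM]. Staurosporine and DMSO serve as controls.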

The test system of assay [4] is Hs 746T (human gastric carcinoma cell line). Nature of the assay: 48 hr CTG viability assay, Hs 746T. It is filed as cell-based. The conditions noted are these: Hs746T, 48 hr CTG, read-out: Hs 746T IC50. As to the method:
(§1) A viability assay was conducted for 48 hours to evaluate the inhibition of cancer cell growth by proteasome inhibitors. Briefly, the candidate cell line was plated with a 96-well plate following density of cells, respectively. 6×10^3 Cells/well for A2780 (human ovarian cancer cell line) and MDA-MB-468 (breast carcinoma), 8×10^3 Cells/well for Hs746T (human gastric carcinoma cell line), 1.1×10^4 Cells/well for MM1 S and RPMI 8226 (multiple myeloma). After 24 hours, the cells were treated with various concentrations of the compound (ranging from 0.0015 uM to 10 uM). […] After 48 hours of incubation at 37° C., 5% CO2 incubator, cells were analyzed for viability using the CellTiter-Glo Luminescent Cell Viability assay (Promega, Cat #G7570). All viability assays were performed in duplicate and Luminescence was read using an Envision (Perkin Elmer, USA). Data were analyzed using XLfit software. […] (human gastric carcinoma cell line), MM1 S (B lymphoblast cell line), and RPMI 8226 (B lymphocyte cell line, multiple myeloma). Inhibition is indicated as IC50 [nM] (“-”=not measured).

The subject of assay [5] is MM1 S (B lymphoblast cell line). Nature of the assay: 48 hr CTG viability assay, MM1S. It is filed as cell-based. The conditions noted are these: Homo sapiens, 48 hr CTG, read-out: MM1S IC50. As to the method:
as §1

For assay [6], the system named is RPMI 8226 (B lymphocyte cell line, multiple myeloma). Nature of the assay: 48 hr CTG viability assay, RPMI 8226. It is filed as cell-based. As to conditions: Homo sapiens, RPMI-8226; 48 hr CTG; read-out: RPMI-8226 IC50. As to the method: as §1

The structures appear in SMILES notation. pIC50: −log10 of the molar value.

`Cc1ccc2cc1CNC(=O)[C@H](CCc1ccccc1)NC(=O)[C@@H](NC(=O)CCN[C@@H]1C[C@H]3CC[C@@H]1C3)CC(=O)N1CCCC(CCO2)C1` [Compound 695, 3-(((1R,2R,4S)-bicyclo[2.2.1]heptan-2-yl)amino)-N-((9S,12S)-5^4-methyl-8,11,14-trioxo-9-phenethyl-4-oxa-7,10-diaza-1(3,1)-piperidina-5(1,3)-benzenacyclotetradecaphane-12-yl)propanamide]: the pIC50 in assay [1], in assay [2], in assay [3], in assay [4], in assay [5] and in assay [6] was greater than 7.00 throughout.

As to `Cc1ccc2cc1CNC(=O)[C@H](CCc1ccccc1)NC(=O)[C@@H](NC(=O)C(C)(C)CO)CCCC(=O)NCCCCO2` [Compound 722, 3-hydroxy-2,2-dimethyl-N-((12S,15S)-1^4-methyl-8,13,16-trioxo-15-phenethyl-2-oxa-7,14,17-triaza-1(1,3)-benzenacyclooctadecaphane-12-yl)propanamide], the pIC50 in assay [1] was greater than 7.00; in assay [2] it was greater than 7.00; in assay [3], 6.30 to 7.00; in assay [4], 6.00 to 6.30; in assay [5] it was 6.30 to 7.00; in assay [6], 6.30 to 7.00.

On to `Cc1ccc2cc1CNC(=O)[C@H](CCc1ccccc1)NC(=O)[C@@H](NC(=O)N1CC(C)(O)C1)CC(=O)N1CCCC(CCO2)C1` (stereo partly drawn) [Compound 669, 3-hydroxy-3-methyl-N-((9S,12S)-5^4-methyl-8,11,14-trioxo-9-phenethyl-4-oxa-7,10-diaza-1(3,1)-piperidina-5(1,3)-benzenacyclotetradecaphane-12-yl)azetidine-1-carboxamide], for which the pIC50 in assay [1], in assay [2], in assay [3], in assay [4], in assay [5] and in assay [6] was greater than 7.00 each time.

In the case of `Cc1ccc2cc1CNC(=O)[C@H](CCc1ccccc1)NC(=O)[C@@H](NC(=O)CCN1CC3(CCOCC3)C1)CC(=O)N1CCCC(CCO2)C1` (stereo partly drawn) [Compound 658, N-((9S,12S)-5^4-methyl-8,11,14-trioxo-9-phenethyl-4-oxa-7,10-diaza-1(3,1)-piperidina-5(1,3)-benzenacyclotetradecaphane-12-yl)-3-(7-oxa-2-azaspiro[3.5]nonan-2-yl)propanamide], the pIC50 in assay [1], in assay [2], in assay [3], in assay [4], in assay [5] and in assay [6] was greater than 7.00 each time.

For `Cc1ccc2cc1CNC(=O)[C@H](CCc1ccccc1)NC(=O)[C@@H](NC(=O)CCOC1CC3(C1)CN(C)C3)CC(=O)N1CCCC(CCO2)C1` (stereo partly drawn) [Compound 710, 3-((2-methyl-2-azaspiro[3.3]heptan-6-yl)oxy)-N-((9S,12S)-5^4-methyl-8,11,14-trioxo-9-phenethyl-4-oxa-7,10-diaza-1(3,1)-piperidina-5(1,3)-benzenacyclotetradecaphane-12-yl)propanamide], the pIC50 in assay [1], in assay [2], in assay [3], in assay [4], in assay [5] and in assay [6] was greater than 7.00 each time.

Take `Cc1ccc2cc1CNC(=O)[C@H](CCc1ccccc1)NC(=O)[C@@H](NC(=O)C1CC3(C1)CN(C)C3)CC(=O)N1CCCC(CCO2)C1` (stereo partly drawn) [Compound 714, 2-methyl-N-((9S,12S)-5^4-methyl-8,11,14-trioxo-9-phenethyl-4-oxa-7,10-diaza-1(3,1)-piperidina-5(1,3)-benzenacyclotetradecaphane-12-yl)-2-azaspiro[3.3]heptane-6-carboxamide]: the pIC50 in assay [1] was greater than 7.00; in assay [2], greater than 7.00; in assay [3], greater than 7.00; in assay [4], 6.30 to 7.00; in assay [5] it was 6.30 to 7.00; in assay [6] it was greater than 7.00.

Turning to `Cc1ccc2cc1CNC(=O)[C@H](CCc1ccccc1)NC(=O)[C@@H](NC(=O)CCNCc1ccccc1)CC(=O)N1CCCC(CCO2)C1` (stereo partly drawn) [Compound 647, 3-(benzylamino)-N-((9S,12S)-5^4-methyl-8,11,14-trioxo-9-phenethyl-4-oxa-7,10-diaza-1(3,1)-piperidina-5(1,3)-benzenacyclotetradecaphane-12-yl)propanamide], the pIC50 in assay [1], in assay [2], in assay [3], in assay [4], in assay [5] and in assay [6] was greater than 7.00 in each case.

`Cc1ccc2cc1CNC(=O)[C@H](C1Cc3ccccc3C1)NC(=O)[C@@H](NC(=O)Cc1cn3ccsc3n1)CC(=O)N1CCCC(CCO2)C1` (stereo partly drawn) [Compound 602, N-((9S,12S)-9-(2,3-dihydro-1H-inden-2-yl)-5^4-methyl-8,11,14-trioxo-4-oxa-7,10-diaza-1(3,1)-piperidina-5(1,3)-benzenacyclotetradecaphane-12-yl)-2-(imidazo[2,1-b]thiazol-6-yl)acetamide]: the pIC50 in assay [1], in assay [2], in assay [3], in assay [4], in assay [5] and in assay [6] was greater than 7.00 each time.

For `Cc1ccc2cc1CNC(=O)[C@H](CCc1ccccc1)NC(=O)[C@@H](NC(=O)[C@@H](N)CCC(=O)O)CC(=O)N1CCCC(CCO2)C1` (stereo partly drawn) [Compound 724, (4S)-4-amino-5-(((9S,12S)-5^4-methyl-8,11,14-trioxo-9-phenethyl-4-oxa-7,10-diaza-1(3,1)-piperidina-5(1,3)-benzenacyclotetradecaphane-12-yl)amino)-5-oxopentanoic acid], the pIC50 in assay [1] is greater than 7.00; in assay [2] it was greater than 7.00; in assay [3] it was greater than 7.00; in assay [4], 6.00 to 6.30; in assay [5], 6.30 to 7.00; in assay [6], 6.30 to 7.00.

In the case of `Cc1ccc2cc1CNC(=O)[C@H](CCc1ccccc1)NC(=O)[C@@H](NC(=O)CCN1CCC3(CCCC3)CC1)CC(=O)N1CCCC(CCO2)C1` (stereo partly drawn) [Compound 613, N-((9S,12S)-5^4-methyl-8,11,14-trioxo-9-phenethyl-4-oxa-7,10-diaza-1(3,1)-piperidina-5(1,3)-benzenacyclotetradecaphane-12-yl)-3-(8-azaspiro[4.5]decan-8-yl)propanamide], the pIC50 in assay [1], in assay [2], in assay [3], in assay [4], in assay [5] and in assay [6] was greater than 7.00 throughout.

For `CC(=O)N[C@H]1CC(=O)N2CCCC(CCOc3ccc(C)c(c3)CNC(=O)[C@H](C3Cc4ccccc4C3)NC1=O)C2` (stereo partly drawn) [Compound 685, N-((9S,12S)-9-(2,3-dihydro-1H-inden-2-yl)-5^4-methyl-8,11,14-trioxo-4-oxa-7,10-diaza-1(3,1)-piperidina-5(1,3)-benzenacyclotetradecaphane-12-yl)acetamide], the pIC50 in assay [1], in assay [2], in assay [3], in assay [4], in assay [5] and in assay [6] was greater than 7.00 in each case.

Regarding `Cc1ccc2cc1CNC(=O)[C@H](CCc1ccccc1)NC(=O)[C@@H](NC(=O)[C@@H](N)CC(=O)O)CC(=O)N1CCCC(CCO2)C1` (stereo partly drawn) [Compound 719, (3S)-3-amino-4-(((9S,12S)-5^4-methyl-8,11,14-trioxo-9-phenethyl-4-oxa-7,10-diaza-1(3,1)-piperidina-5(1,3)-benzenacyclotetradecaphane-12-yl)amino)-4-oxobutanoic acid], the pIC50 in assay [1] is greater than 7.00; in assay [2] it was greater than 7.00; in assay [3] it was greater than 7.00; in assay [4], 6.00 to 6.30; in assay [5] it was 6.30 to 7.00; in assay [6], 6.30 to 7.00.
